Results reported in patent US8604053B2, “TRPV1 antagonists” (AbbVie Inc., priority 2008, dated 2013).

Key:
human TRPV1 = target: T1, human TRPV1 (Homo sapiens, UniProt Q8NER1); test: Acid activation assay, ratiometric calcium imaging; format: cell-based; conditions: HEK293-F cells expressing human TRPV1, Example 56 at 3 μM; for block of TRPV1-mediated increase in intracellular calcium concentration in response to pH 5.5: acid pH 5.5; for block of TRPV1-mediated increase in intracellular calcium concentration in response to capsaicin: capsaicin 1 μM
T1 construct: expressed in transfected cells; host or cells: HEK293-F cells, transient transfection
Method: The differential effects of TRPV1 antagonists on capsaicin- or acid-induced responses were verified by ratiometric calcium imaging. Transiently transfected HEK293-F cells expressing human TRPV1 were incubated with 5 μM Fura-2AM for 30 minutes at 37° C. Intracellular calcium concentration was measured on an imaging system consisting of the X-Cite™ 120 Fluorescence Illumination System (EXFO) and a Digital Camera (C4742-95, Hamamatsu Photonics) connected to an Olympus 1×71 microscope. Through the control of Slide Book 4.2 software, fluorescence was measured during excitation at 340 and 380 nm; the ratio of the fluorescence at both excitation wavelengths (F340/F380) was monitored. D-PBS, pH 7.4 (Invitrogen, catalog no. 14287) was used as the extracellular solution. Acidic buffer was prepared by titrating D-PBS, pH 7.4 with 7 N HCl to pH 5.5. Agonists and antagonists were prepared in the pH 7.4 or 5.5 solutions. Rapid solution switch was achieved by using a ValveLink system.
Over the time 1250-second course, the cells were challenged sequentially with solutions containing Example 56 (3 μM), Example 56 (3 μM) plus capsaicin (1 μM), Example 56 (3 μM) plus acid (pH 5.5), or acid (pH 5.5) alone. The black bars above the traces designate addition and duration of solution applications. Spaces between horizontal bars represent periods in which cells were perfused with D-PBS, pH 7.4 alone. […]

[1] = Rat telemetry protocol, core body temperature; format: in vivo; conditions: core body temperature of rats one hour post dosing, 100 μmol/kg p.o., relative to vehicle
Method: Male, Sprague Dawley rats, 225-250 grams were anesthetized with Sevoflurane (Abbott Laboratories). Rats were placed on a heating pad and covered with a sterile surgical drape. A ventral midline abdominal incision was made and sterile cotton tip applicators were used to gently move internal tissue and expose the abdominal aorta for implantation of the telemetry catheter (Data Sciences International; TL11M2-050-PXT). Blood flow was temporarily stopped to the lower extremities (5-7 min) with Diffenbach clamps to allow the insertion of the telemetry catheter into the abdominal aorta. Once inserted, a sterile cellulose patch was placed over the catheter/aorta and secured using a small amount of tissue adhesive (Vetbond, 3M). Once catheter placement was complete, the clamps were removed and blood flow was restored to the lower extremities. Thetransmitter was placed in the intraperitoneal cavity. The transmitter suture rib was sewn into the abdominal sutures to secure it in place. The skin was closed using sterile wound clips and the animal removed from Sevoflurane. Buprenex ([…] s.c.; Phoenix) was administered for post-operative analgesia. Animals were maintained on a heating pad until ambulatory, and then individually housed with food and water ad lib. Surgical staples were removed after 7-10 days post-implantation. Rats were allowed a 2-week post-surgical recovery period before treatment with test compound. Oral dosing (p.o.) was at time zero, with rats receiving a single dose of vehicle (10% EtOH, 20% Tween-80, 70% PEG-400) or a 100 μmol/kg dose of compound dissolved in vehicle. Temperature measurements were recorded every 15 minutes for the duration of the study (24 hours).
Representative compounds described herein have the novel property of having limited transient temperature effect on core body temperature of a mammal (e.g. rats). For example, compounds tested alter core body temperature of rats by less than about +0.5° C. at about 1 hour after administration of a single dose (100 μmol/kg) of the test compounds orally, for example, in the range from about −2.5° C. to less than about +0.5° C., from about −0.5° C. to less than about +0.5° C.; or from about −0.3° C. to about +0.3° C.
The term “core body temperature” as used herein, means the temperature measured in the intraperitoneal cavity.

[2] = target: T2, human TRPV1 receptor (hTRPV1) (Homo sapiens, UniProt Q8NER1); test: Capsaicin activation assay (Ca2+ influx, FLIPR); format: cell-based; conditions: hTRPV1 in 1321N1 cells, 0.05 μM capsaicin
T2 construct: expressed in transfected cells
Method: Dulbecco's modified Eagle medium (D-MEM) (with 4.5 mg/mL glucose) and fetal bovine serum were obtained from Hyclone Laboratories, Inc. (Logan, Utah). Dulbecco's phosphate-buffered saline (D-PBS) (with 1 mg/mL glucose and 3.6 mg/l Na pyruvate, without phenol red), L-glutamine, hygromycin B, and Lipofectamine® were obtained from Life Technologies (Grand Island, N.Y.). G418 sulfate was obtained from Calbiochem-Novabiochem Corp. (San Diego, Calif.). Capsaicin (8-methyl-N-vanillyl-6-nonenamide) was obtained from Sigma-Aldrich, Co. (St. Louis, Mo.). Fluo-4 AM (N-[4-[6-[(acetyloxy)methoxy]-2,7-difluoro-3-oxo-3H-xanthen-9-yl]-2-[2-[2-[bis[2-[(acetyloxy)methoxy]-2-oxyethyl]amino]-5-methyl-phenoxy[ethoxy]phenyl]-N-[2-[(acetyloxy)methoxy]-2-oxyethyl]-glycine, (acetyloxy)methyl ester) was purchased from Molecular Probes (Eugene, Oreg.).
The cDNAs for the human TRPV1 receptor (hTRPV1) were isolated by reverse transcriptase-polymerase chain reaction (RT-PCR) from human small intestine poly A+ RNA supplied by Clontech (Palo Alto, Calif.) using primers designed surrounding the initiation and termination codons identical to the published sequences (Hayes et al. Pain 2000, 88, 205-215). The resulting cDNA PCR products were subcloned into pClneo mammalian expression vector (Promega) and fully sequenced using fluorescent dye-terminator reagents (Prism, Perkin-Elmer Applied Biosystems Division) and a Perkin-Elmer Applied Biosystems Model 373 DNA sequencer or Model 310 genetic analyzer. Expression plasmids encoding the hTRPV1 cDNA were transfected individually into 1321N1 human astrocytoma cells using Lipofectamine®. Forty-eight hours after transfection, the neomycin-resistant cells were selected with growth medium containing 800 μg/mL Geneticin (Gibco BRL). Surviving individual colonies were isolated and screened for TRPV1 receptor activity. Cells expressing recombinant homomeric TRPV1 receptors were maintained at 37° C. in D-MEM containing 4 mM L-glutamine, 300 μg/mL G418 (Cal-biochem) and 10% fetal bovine serum under a humidified 5% CO2 atmosphere.
The functional activity of compounds at the TRPV1 receptor was determined with a Ca^2+ influx assay and measurement of intracellular Ca^2+ levels ([Ca^2+]i). All compounds were tested over an 11-point half-log concentration range. Compound solutions were prepared in D-PBS (4× final concentration), and diluted serially across 96-well v-bottom tissue culture plates using a Biomek 2000 robotic automation workstation (Beckman-Coulter, Inc., Fullerton, Calif.). A 0.2 μM solution of the TRPV1 agonist capsaicin was also prepared in D-PBS. The fluorescent Ca^2+ chelating dye Fluo-4 AM was used as an indicator of the relative levels of [Ca^2+]i in a 96-well format using a Fluorescence Imaging Plate Reader (FLIPR)(Molecular Devices, Sunnyvale, Calif.). Cells were grown to confluency in 96-well black-walled tissue culture plates. Then, prior to the assay, the cells were loaded with 100 μL per well of Fluo-4 AM (2 μM, in D-PBS) for 1-2 hours at 23° C. Washing of the cells was performed to remove extracellular Fluo-4 AM (2×1 mL D-PBS per well), and afterward, the cells were placed in the reading chamber of the FLIPR instrument. 50 μL of the compound solutions were added to the cells at the 10 second time mark of the experimental run. Then, after a 3-minute time delay, 50 μL of the capsaicin solution was added at the, 190 second time mark (0.05 μM final concentration)(final volume=200 μL) to challenge the TRPV1 receptor. Time length of the experimental run was 240 seconds. Fluorescence readings were made at 1 to 5 second intervals over the course of the experimental run. The peak increase in relative fluorescence units (minus baseline) was calculated from the 190 second time mark to the end of the experimental run, and expressed as a percentage of the 0.05 μM capsaicin (control) response. […]

T2 sequence (Q8NER1 whole entry): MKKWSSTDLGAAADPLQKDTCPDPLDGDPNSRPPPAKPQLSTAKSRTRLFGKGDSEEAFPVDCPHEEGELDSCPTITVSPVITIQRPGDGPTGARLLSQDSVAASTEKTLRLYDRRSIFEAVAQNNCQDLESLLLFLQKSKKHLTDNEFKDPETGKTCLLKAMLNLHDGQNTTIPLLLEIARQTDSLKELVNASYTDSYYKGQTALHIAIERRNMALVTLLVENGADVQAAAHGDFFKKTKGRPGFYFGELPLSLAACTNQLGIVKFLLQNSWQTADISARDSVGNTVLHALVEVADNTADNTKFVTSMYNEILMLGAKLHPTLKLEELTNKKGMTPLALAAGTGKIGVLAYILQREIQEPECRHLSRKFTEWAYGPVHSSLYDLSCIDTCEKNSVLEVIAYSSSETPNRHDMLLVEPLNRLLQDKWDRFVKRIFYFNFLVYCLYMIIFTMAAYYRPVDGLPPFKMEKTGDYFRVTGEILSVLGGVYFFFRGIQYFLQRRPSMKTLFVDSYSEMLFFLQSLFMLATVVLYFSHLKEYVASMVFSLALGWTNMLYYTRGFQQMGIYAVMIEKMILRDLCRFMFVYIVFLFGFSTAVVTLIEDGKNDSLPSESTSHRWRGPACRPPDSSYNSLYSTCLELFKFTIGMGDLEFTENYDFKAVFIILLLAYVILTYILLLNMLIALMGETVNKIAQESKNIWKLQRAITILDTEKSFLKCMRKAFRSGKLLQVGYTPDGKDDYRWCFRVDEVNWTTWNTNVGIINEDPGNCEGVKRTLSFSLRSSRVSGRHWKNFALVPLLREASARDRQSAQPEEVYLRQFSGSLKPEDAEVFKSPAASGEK
T1 sequence (Q8NER1 whole entry): as above

| SMILES | block of TRPV1-mediated increase in intracellular calcium concentration in response to pH 5.5 (human TRPV1) | block of TRPV1-mediated increase in intracellular calcium concentration in response to capsaicin (human TRPV1) | Δ Temp (° C.) [1] [°C] | IC50 [2] [nM] |
| --- | --- | --- | --- | --- |
| CC(=O)Nc1nc2c(Oc3cc(N4CCN(C(C)c5ccc(F)cc5)CC4)ncn3)cccc2s1 (centres unmarked) [AMG 628, reference compound] | completely blocked | completely blocked |  |  |
| CCC1(CC)C[C@@H](NC(=O)Nc2cccc3c2cnn3C)c2cc(F)ccc2O1 [Example 26, N-[(4R)-2,2-diethyl-6-fluoro-3,4-dihydro-2H-chromen-4-yl]-N′-(1-methyl-1H-indazol-4-yl)urea] | did not completely block | completely blocked | 0.1 | 50 |
| CCC1(CC)C[C@@H](NC(=O)Nc2cccc3c2cnn3C)c2cccc(OC(F)(F)F)c2O1 [Example 55, N-[(4R)-2,2-diethyl-8-(trifluoromethoxy)-3,4-dihydro-2H-chromen-4-yl]-N′-(1-methyl-1H-indazol-4-yl)urea] | did not completely block | completely blocked | 0.3 | 16 |
| CCCC1(CCC)C[C@@H](NC(=O)Nc2cccc3c2cnn3C)c2cc(F)ccc2O1 [Example 61, N-[(4R)-6-fluoro-2,2-dipropyl-3,4-dihydro-2H-chromen-4-yl]-N′-(1-methyl-1H-indazol-4-yl)urea] | did not completely block | completely blocked | 0.3 | 31 |
